Two compounds from patent US12077503B2, “Substituted cyclic amides and their use as herbicides” (FMC CORPORATION, priority 2015, dated 2024) can be followed below.

Structures are written as SMILES. Read-outs that look alike come from different tables or passages of the source.

Holding throughout (type): in vivo
The test system of experiment [1] is pigweed (Amaranthus retroflexus). Nature of the experiment: Test A preemergence. The note with it: Amaranthus retroflexus, pre-emergence, 240 h; for pest or weed control at 125 g/ha: 125 g ai/ha; for pest or weed control at 500 g/ha: 500 g ai/ha.
Experiment [2] has as its system giant foxtail (Setaria faberii). The experiment in a line: Test A preemergence. The note with it: Setaria faberi, pre-emergence, 240 h; for pest or weed control at 125 g/ha: 125 g ai/ha; for pest or weed control at 500 g/ha: 500 g ai/ha. The essentials:
(§1)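 Compounds were formulated in a non-phytotoxic solvent mixture with surfactant and applied as a preemergence directed soil spray after seeding, or sprayed postemergence over plants 2 to 10 cm tall at the one- to two-leaf stage. Evaluation after about 10 d compared treated with untreated controls, using a scale from 0 (no effect) to 100 (complete control).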

Experiment [3] concerns ragweed (common ragweed, Ambrosia elatior). Nature of the experiment: Test A preemergence. The note with it: Ambrosia artemisiifolia, pre-emergence, 240 h; for pest or weed control at 125 g/ha: 125 g ai/ha; for pest or weed control at 500 g/ha: 500 g ai/ha. The essentials: as §1
A further experiment has as its system Kochia (Kochia scoparia). The experiment in a line: Test A preemergence. Particulars: Bassia scoparia, pre-emergence, 240 h; for pest or weed control at 125 g/ha: 125 g ai/ha; for pest or weed control at 500 g/ha: 500 g ai/ha. The essentials: as §1
Experiment [4] has as its system ryegrass, Italian (Italian ryegrass, Lolium multiflorum). Nature of the experiment: Test A preemergence. Particulars: Lolium multiflorum, pre-emergence, 240 h; for pest or weed control at 125 g/ha: 125 g ai/ha; for pest or weed control at 500 g/ha: 500 g ai/ha. The essentials:
as §1

Experiment [5] concerns barnyardgrass (Echinochloa crus-galli). The experiment in a line: Test A preemergence. Particulars: Echinochloa crus-galli, pre-emergence, 240 h; for pest or weed control at 125 g/ha: 125 g ai/ha; for pest or weed control at 500 g/ha: 500 g ai/ha. The essentials: as §1
For another experiment, the system named is corn (Zea mays). Nature of the experiment: Test A postemergence. The note with it: Zea mays, post-emergence, 240 h, 125 g ai/ha. The essentials:
as §1

The test system of experiment [6] is ragweed (common ragweed, Ambrosia elatior). Nature of the experiment: Test A postemergence. Particulars: Ambrosia artemisiifolia, post-emergence, 240 h, 125 g ai/ha. The essentials: as §1
In experiment [7] the test system is Galium (catchweed bedstraw, Galium aparine). The experiment in a line: Test A postemergence. The note with it: Galium, post-emergence, 240 h, 125 g ai/ha. The essentials:
as §1

Experiment [8] has as its system barnyardgrass (Echinochloa crus-galli). The experiment in a line: Test A postemergence. Particulars: Echinochloa crus-galli, post-emergence, 240 h, 125 g ai/ha. The essentials: as §1
For the next experiment, the system named is rice (Oryra sativa). Nature of the experiment: Test B flooded paddy test. Particulars: Oryza sativa, Flood, 250 g ai/ha; scale of 0 to 100 where 0 is no effect and 100 is complete control; read-out: Rice plant response rating. The essentials:
(§2)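 Greenhouse paddy pots with 2-leaf stage plants received compound by direct addition to floodwater 3 cm deep, kept at that level. Scored visually at 13–15 d versus controls (0 no effect; 100 complete control).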

Experiment [9] concerns sedge, umbrella (small-flower umbrella sedge, Cyperus difformis). Nature of the experiment: Test B flooded paddy test. The note with it: Cyperus difformis, 250 g ai/ha, Flood, read-out: Sedge, Umbrella plant response rating. The essentials:
as §2

The test system of experiment [10] is barnyardgrass (Echinochloa crus-galli). The experiment in a line: Test B flooded paddy test. Particulars: Echinochloa crus-galli, Flood, 250 g ai/ha; scale of 0 to 100 where 0 is no effect and 100 is complete control; read-out: Barnyardgrass plant response rating. The essentials:
as §2

The test system of experiment [11] is ducksalad (Heteranthera limosa). The experiment in a line: Test B flooded paddy test. Particulars: Heteranthera limosa, Flood, 250 g ai/ha; scale of 0 to 100 where 0 is no effect and 100 is complete control; read-out: Ducksalad plant response rating. The essentials: as §2

As for `COc1ccc([C@H]2CN(C)C(=O)[C@@H]2C(=O)Nc2ccccc2SC)cc1C(F)(F)F` [Compound 991], the pest or weed control at 125 g/ha was 60% in experiment [1] (Preemergence, visual injury rating after approximately 10 d, read-out: Pigweed plant response rating (0 to 100 scale, 0 is no effect, 100 is complete control)); 90% in experiment [2] (Preemergence, visual injury rating after approximately 10 d, read-out: Foxtail, Giant plant response rating (0 to 100 scale, 0 is no effect, 100 is complete control)); 0% in experiment [3] (Preemergence, visual injury rating after approximately 10 d, read-out: Ragweed plant response rating (0 to 100 scale, 0 is no effect, 100 is complete control)); 0% with Kochia (Kochia scoparia) (Preemergence, visual injury rating after approximately 10 d, read-out: Kochia plant response rating (0 to 100 scale, 0 is no effect, 100 is complete control)); 0% in experiment [4] (Preemergence, visual injury rating after approximately 10 d, read-out: Ryegrass, Italian plant response rating (0 to 100 scale, 0 is no effect, 100 is complete control)); 70% in experiment [5] (Preemergence, visual injury rating after approximately 10 d, read-out: Barnyardgrass plant response rating (0 to 100 scale, 0 is no effect, 100 is complete control)). Moreover, the pest or weed control at 125 g/ha in [6] (Postemergence, visual injury after approximately 10 d, 0 to 100 scale where 0 is no effect and 100 is complete control, read-out: Plant response rating, Ragweed) turned out to be 0%; in experiment [7] (Postemergence, visual injury after approximately 10 d, 0 to 100 scale where 0 is no effect and 100 is complete control, read-out: Plant response rating, Galium), 0%; in experiment [8] (Postemergence, visual injury after approximately 10 d, 0 to 100 scale where 0 is no effect and 100 is complete control, read-out: Plant response rating, Barnyardgrass) it was 30%. Besides, the pest or weed control at 500 g/ha in experiment [1] (preemergence, visual injury rating about 10 d after treatment, 0 to 100 scale (0 no effect, 100 complete control), read-out: Pigweed plant response rating) was determined as 50%; in experiment [2] (preemergence, visual injury rating about 10 d after treatment, 0 to 100 scale (0 no effect, 100 complete control), read-out: Foxtail, Giant plant response rating), 90%; in [3] (preemergence, visual injury rating about 10 d after treatment, 0 to 100 scale (0 no effect, 100 complete control), read-out: Ragweed plant response rating), 30%; in the experiment on Kochia (Kochia scoparia) (preemergence, visual injury rating about 10 d after treatment, 0 to 100 scale (0 no effect, 100 complete control), read-out: Kochia plant response rating), 60%; in [4] (preemergence, visual injury rating about 10 d after treatment, 0 to 100 scale (0 no effect, 100 complete control), read-out: Ryegrass, Italian plant response rating) it was 50%; in experiment [5] (preemergence, visual injury rating about 10 d after treatment, 0 to 100 scale (0 no effect, 100 complete control), read-out: Barnyardgrass plant response rating), 90%. In the experiment on corn (Zea mays) (Postemergence, visual injury after approximately 10 d, 0 to 100 scale where 0 is no effect and 100 is complete control), this compound gave a Corn plant response rating (crop injury, 0 = no effect, 100 = complete kill) at 125 g/ha of 0%. Moreover, the pest or weed control at 250 g/ha with rice (Oryra sativa) was 15%; in [9] (0 to 100 scale where 0 is no effect and 100 is complete control), 0%; in experiment [10], 0%; in experiment [11], 40%.

For `CSc1ccccc1NC(=O)[C@H]1C(=O)N(C)C[C@@H]1c1cc(C)cc(F)c1` [Compound 851], the pest or weed control at 125 g/ha in experiment [1] (preemergence, 0 to 100 scale where 0 is no effect and 100 is complete control, read-out: Pigweed plant response rating) is 60%; in [2] (preemergence, 0 to 100 scale where 0 is no effect and 100 is complete control, read-out: Foxtail, Giant plant response rating) it was 90%; in experiment [3] (preemergence, 0 to 100 scale where 0 is no effect and 100 is complete control, read-out: Ragweed plant response rating) it was 0%; with Kochia (Kochia scoparia) (preemergence, 0 to 100 scale where 0 is no effect and 100 is complete control, read-out: Kochia plant response rating), 20%; in [4] (preemergence, 0 to 100 scale where 0 is no effect and 100 is complete control, read-out: Ryegrass, Italian plant response rating), 0%; in experiment [5] (preemergence, 0 to 100 scale where 0 is no effect and 100 is complete control, read-out: Barnyardgrass plant response rating) it was 90%. The pest or weed control at 125 g/ha was 0% in experiment [6] (postemergence, visual injury rating after approximately 10 d, read-out: Ragweed plant response rating (0 to 100 scale, 0 no effect, 100 complete control)); 30% in [7] (postemergence, visual injury rating after approximately 10 d, read-out: Galium plant response rating (0 to 100 scale, 0 no effect, 100 complete control)); 90% in experiment [8] (postemergence, visual injury rating after approximately 10 d, read-out: Barnyardgrass plant response rating (0 to 100 scale, 0 no effect, 100 complete control)). For the same compound, the pest or weed control at 500 g/ha in experiment [1] (Preemergence, visual injury vs untreated controls after approximately 10 d, read-out: Pigweed plant response rating (0 to 100 scale where 0 is no effect and 100 is complete control)) amounted to 90%; in [2] (Preemergence, visual injury vs untreated controls after approximately 10 d, read-out: Foxtail, Giant plant response rating (0 to 100 scale where 0 is no effect and 100 is complete control)) it was 90%; in [3] (Preemergence, visual injury vs untreated controls after approximately 10 d, read-out: Ragweed plant response rating (0 to 100 scale where 0 is no effect and 100 is complete control)), 30%; in the experiment on Kochia (Kochia scoparia) (Preemergence, visual injury vs untreated controls after approximately 10 d, read-out: Kochia plant response rating (0 to 100 scale where 0 is no effect and 100 is complete control)) it was 70%; in experiment [4] (Preemergence, visual injury vs untreated controls after approximately 10 d, read-out: Ryegrass, Italian plant response rating (0 to 100 scale where 0 is no effect and 100 is complete control)) it was 70%; in experiment [5] (Preemergence, visual injury vs untreated controls after approximately 10 d, read-out: Barnyardgrass plant response rating (0 to 100 scale where 0 is no effect and 100 is complete control)), 90%. For the same compound, the plant injury at 125 g/ha with corn (Zea mays) (postemergence, visual injury rating after approximately 10 d, read-out: Corn plant response rating (0 to 100 scale, 0 no effect, 100 complete control)) was found to be 0%. The pest or weed control at 250 g/ha amounted to 0% in the experiment on rice (Oryra sativa); 0% in experiment [9] (scale of 0 to 100 where 0 is no effect and 100 is complete control); 0% in [10]; 90% in [11].
